# Experimental data taken from PMC3657749 (Journal of medicinal chemistry, 2013).
# Tests used:
# HDAC 6 = target: T1, HDAC 6 (Homo sapiens, UniProt Q9UBN7); test: HDAC inhibition by SAMDI mass spectrometry, HDAC 6; type: biochemical; settings: maximum tested concentration 10 μM
# T1 sequence (Q9UBN7 1-1215): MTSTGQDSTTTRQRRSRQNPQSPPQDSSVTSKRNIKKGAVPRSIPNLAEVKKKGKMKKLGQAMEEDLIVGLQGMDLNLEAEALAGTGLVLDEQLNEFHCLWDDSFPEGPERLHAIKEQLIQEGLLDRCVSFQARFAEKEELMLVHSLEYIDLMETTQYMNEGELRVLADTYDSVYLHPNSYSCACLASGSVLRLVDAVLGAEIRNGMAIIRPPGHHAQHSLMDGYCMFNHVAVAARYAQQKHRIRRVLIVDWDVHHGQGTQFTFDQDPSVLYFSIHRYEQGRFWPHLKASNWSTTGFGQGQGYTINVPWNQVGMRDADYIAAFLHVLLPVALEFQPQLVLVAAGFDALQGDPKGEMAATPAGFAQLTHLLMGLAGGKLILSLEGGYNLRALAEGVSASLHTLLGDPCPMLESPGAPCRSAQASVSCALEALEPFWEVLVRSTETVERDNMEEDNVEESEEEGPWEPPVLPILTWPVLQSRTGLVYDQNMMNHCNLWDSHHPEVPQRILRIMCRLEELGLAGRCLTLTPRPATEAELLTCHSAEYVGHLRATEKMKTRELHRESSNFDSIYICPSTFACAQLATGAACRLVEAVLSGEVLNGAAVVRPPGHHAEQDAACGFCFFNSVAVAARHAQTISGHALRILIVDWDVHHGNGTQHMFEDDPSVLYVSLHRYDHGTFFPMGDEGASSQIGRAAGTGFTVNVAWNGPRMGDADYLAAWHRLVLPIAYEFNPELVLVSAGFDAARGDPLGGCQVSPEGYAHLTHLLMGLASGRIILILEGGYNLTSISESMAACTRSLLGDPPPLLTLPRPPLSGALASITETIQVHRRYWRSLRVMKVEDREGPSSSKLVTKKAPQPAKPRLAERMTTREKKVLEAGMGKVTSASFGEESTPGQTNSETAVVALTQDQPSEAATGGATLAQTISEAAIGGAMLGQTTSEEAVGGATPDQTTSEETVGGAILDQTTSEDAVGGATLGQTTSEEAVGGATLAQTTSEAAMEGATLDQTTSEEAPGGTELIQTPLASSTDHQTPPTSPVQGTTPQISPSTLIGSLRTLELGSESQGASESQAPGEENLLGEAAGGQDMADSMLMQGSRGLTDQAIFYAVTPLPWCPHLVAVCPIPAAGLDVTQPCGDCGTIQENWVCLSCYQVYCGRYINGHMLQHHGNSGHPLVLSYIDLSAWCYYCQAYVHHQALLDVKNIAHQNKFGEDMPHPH
# HDAC 8 = target: T2, HDAC 8 (Homo sapiens, UniProt Q9BY41); test: HDAC inhibition by SAMDI mass spectrometry, HDAC 8; type: biochemical; settings: for HDAC 8 inhibition (result in words): SAMDI, maximum tested concentration 10 μM; for HDAC 8 inhibition relative to 7c: fold more active than 7c
# T2 sequence (Q9BY41 1-377): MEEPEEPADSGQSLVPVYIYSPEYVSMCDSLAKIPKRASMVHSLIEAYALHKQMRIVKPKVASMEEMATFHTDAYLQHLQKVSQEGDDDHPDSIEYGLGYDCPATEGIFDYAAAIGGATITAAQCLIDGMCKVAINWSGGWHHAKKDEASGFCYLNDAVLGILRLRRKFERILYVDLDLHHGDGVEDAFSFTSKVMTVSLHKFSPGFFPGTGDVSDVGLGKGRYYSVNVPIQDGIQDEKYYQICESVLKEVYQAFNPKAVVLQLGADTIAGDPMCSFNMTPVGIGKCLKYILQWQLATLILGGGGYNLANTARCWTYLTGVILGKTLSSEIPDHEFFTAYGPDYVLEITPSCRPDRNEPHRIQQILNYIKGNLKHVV
# HDAC 1 = HDAC 1 (Homo sapiens, UniProt Q13547); test: HDAC inhibition by SAMDI mass spectrometry, HDAC 1; type: biochemical; settings: maximum tested concentration 10 μM
# [1] = tested on: DU-145 (androgen independent prostate cancer); test: Cell viability assay; type: cell-based; settings: for DU-145 anti-proliferative activity (result in words): highest tested concentration 20 μM
# [2] = tested on: LNCaP (androgen dependent prostate cancer); test: Cell viability assay; type: cell-based
# [3] = tested on: T-cell leukemia cell line Jurkat; test: Cell viability assay; type: cell-based
# [4] = tested on: Jurkat J.gamma1 (mutant Jurkat cell line, no detectable PLCγ1 activity); test: Cell viability assay; type: cell-based; settings: for IC50: Homo sapiens, Jurkat, 72 h, read-out: Cellular IC50(μM) Jurkat J.gammal
# [5] = tested on: tubulin acetylation (HDAC6 inhibition) in LNCaP cell line; test: Western blot analysis of tubulin acetylation; type: cell-based; settings: LNCaP cells, 4 hours, at IC50 concentration and at 20 μM
# Jurkat J.gamma1 = settings: mutant Jurkat cell line without detectable PLCγ1 activity; cited from earlier work
# Chain of HDAC 1 (Q13547 whole entry): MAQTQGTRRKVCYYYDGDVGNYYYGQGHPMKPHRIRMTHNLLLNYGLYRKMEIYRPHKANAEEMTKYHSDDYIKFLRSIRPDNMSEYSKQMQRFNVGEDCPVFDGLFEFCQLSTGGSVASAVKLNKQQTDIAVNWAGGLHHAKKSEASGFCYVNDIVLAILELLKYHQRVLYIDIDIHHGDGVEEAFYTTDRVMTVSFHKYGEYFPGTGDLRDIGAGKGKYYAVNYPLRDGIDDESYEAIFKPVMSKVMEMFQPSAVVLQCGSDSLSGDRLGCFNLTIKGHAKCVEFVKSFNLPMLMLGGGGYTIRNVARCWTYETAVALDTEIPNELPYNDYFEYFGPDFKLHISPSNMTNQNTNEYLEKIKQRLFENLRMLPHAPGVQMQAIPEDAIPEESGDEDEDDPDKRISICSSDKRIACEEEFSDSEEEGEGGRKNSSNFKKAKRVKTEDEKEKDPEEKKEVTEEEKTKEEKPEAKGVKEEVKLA
smiles,measurement,setting,value
"Cn1cccc(O)c1=O [Compound 5a, 1-Methyl-3-hydroxypyridin-2-one]",HDAC 6 inhibition (result in words),HDAC 6,failed to inhibit
same,HDAC 8 inhibition (result in words),HDAC 8,failed to inhibit
same,HDAC 1 inhibition (result in words),HDAC 1,failed to inhibit
"N#Cc1ccc(-c2ccc(Cn3cccc(O)c3=S)cc2)cc1 [Compound 12a, 1-(4-Cyano-(1,1'-biphenylmethyl))-3-hydroxyoxypyridin-2-thione]",HDAC 8 inhibition relative to 7c,HDAC 8,about 2 fold
"Oc1ccc[nH]c1=S [Compound 3-HPT, 3-hydroxypyridin-2-thione]",IC50,"[1]; Homo sapiens, DU-145, read-out: Cellular IC50(μM) DU-145",> 20 µM
same,DU-145 anti-proliferative activity (result in words),[1],inactive
same,LNCaP anti-proliferative activity (result in words),[2],inactive
same,IC50,"[2]; Homo sapiens, LNCaP, read-out: Cellular IC50(μM) LNCaP",> 20 µM
same,HDAC 1 inhibition (result in words),HDAC 1,no inhibition
same,Jurkat anti-proliferative activity (result in words),[3],inactive
same,IC50,"[3]; Homo sapiens, Jurkat, 72 h, read-out: Cellular IC50(μM) Jurkat",> 20 µM
"Cc1ccccc1-c1ccc(Cn2cccc(O)c2=S)cc1 [Compound 12f, 1-(2-Methyl-(1,1'-biphenylmethyl))-3-hydroxyoxypyridin-2-thione]",Jurkat J.gamma1 anti-proliferative activity (result in words),[4],non-cytotoxic
same,IC50,[4],> 20 µM
same,DU-145 anti-proliferative activity (result in words),[1],weak activity
same,tubulin acetylation (Western blot),[5],increase in tubulin acetylation
"N#Cc1cccc(-c2ccc(Cn3cccc(O)c3=S)cc2)c1 [Compound 12b, 1-(3-Cyano-(1,1'-biphenylmethyl))-3-hydroxyoxypyridin-2-thione]",HDAC 6 inhibition (result in words),HDAC 6,abrogation of HDAC 6 inhibition
"O=c1c(O)cccn1Cc1ccc(-c2ccccc2)cc1 [Compound 5c, 1-(1,1'-Biphenylmethyl)-3-hydroxypyridin-2-one]",HDAC 6 inhibition (result in words),HDAC 6,failed to inhibit
same,HDAC 8 inhibition (result in words),HDAC 8,failed to inhibit
same,HDAC 1 inhibition (result in words),HDAC 1,failed to inhibit
"Oc1cccn(Cc2ccc(-c3ccccc3)cc2)c1=S [Compound 7c, 1-(1,1'-Biphenylmethyl)-3-hydroxypyridin-2-thione]",HDAC 1 inhibition (result in words),HDAC 1,neither 7b nor 7c possess any measurable activity
"O=c1c(O)cccn1Cc1cn(-c2ccccc2)nn1 [Compound 15a, 1-Phenyltriazolylmethyl-3-hydroxypyridin-2-one]",HDAC 6 inhibition (result in words),HDAC 6,inactive
same,HDAC 8 inhibition (result in words),HDAC 8,inactive
same,HDAC 1 inhibition (result in words),HDAC 1,inactive
"Oc1cccn(Cc2cn(-c3ccccc3)nn2)c1=S [Compound 17a, 1-Phenyltriazolylmethyl-3-hydroxypyridin-2-thione]",HDAC 6 inhibition (result in words),HDAC 6,only marginally inhibitory
same,Jurkat J.gamma1 anti-proliferative activity (result in words),[4],devoid of anti-proliferative activity
same,IC50,[4],> 20 µM
same,HDAC 8 inhibition relative to 7c,HDAC 8,2 to 3 fold
"O=c1c(O)cccn1Cc1ccccc1 [Compound 5b, 1-Benzyl-3-hydroxypyridin-2-one]",HDAC 6 inhibition (result in words),HDAC 6,failed to inhibit
same,HDAC 8 inhibition (result in words),HDAC 8,failed to inhibit
same,HDAC 1 inhibition (result in words),HDAC 1,failed to inhibit
"O=C(CCCCCCC(=O)Nc1ccccc1)NO [SAHA, suberoylanilide hydroxamic acid, reference compound]",Jurkat J.gamma1 anti-proliferative activity (result in words),[4],non-cytotoxic
same,tubulin acetylation (Western blot),[5],concentration dependent tubulin hyperacetylation
COc1ccc(Cn2ccc3ccc(C(=O)NO)cc32)cc1 [PCI-34051],apoptosis induction in Jurkat J.gamma1,Jurkat J.gamma1,lost its ability to induce apoptosis
CN(C)c1ccc(-c2ccc(Cn3cccc(O)c3=S)cc2)cn1 [Compound 12h],HDAC 8 inhibition (result in words),HDAC 8,loss of HDAC 8 inhibition
"Oc1cccn(Cc2ccccc2)c1=S [Compound 7b, 1-Benzyl-3-hydroxypyridin-2-thione]",HDAC 1 inhibition (result in words),HDAC 1,neither 7b nor 7c possess any measurable activity
"CN(C)c1ccc(-c2ccc(Cn3cccc(O)c3=S)cc2)cc1 [Compound 12g, 1-(4-Dimethylamino-(1,1'-biphenylmethyl))-3-hydroxyoxypyridin-2-thione]",HDAC 6 inhibition (result in words),HDAC 6,loss of HDAC 6 inhibition
same,Jurkat J.gamma1 anti-proliferative activity (result in words),[4],devoid of anti-proliferative activity
same,IC50,[4],> 20 µM
same,HDAC 8 inhibition relative to 7c,HDAC 8,about 2 fold
